# Measured values as given in patent US20190209501A1, “COMPOSITIONS AND METHODS OF USE OF BETA-HYDROXY-BETA-METHYLBUTYRATE (HMB) […] IN[…]” (Texas Tech University Office of Research Commercialization, priority 2018, published 2019).
# “Also recorded” adds a separate entry of the source.
# Assays:
# Format in all cases: in vivo, human
# [1] = Muscle thickness of elbow flexors and knee extensors via ultrasonography; details: for MTEF ES (d) / MTKE ES (d): Cohen's d baseline vs week 8; for MTEF Δ (%) / MTKE Δ (%): change baseline to week 8 relative to baseline; for MTEF (cm) Week 8: muscle thickness elbow flexors; for MTEF (cm) Week 8 / MTKE (cm) Week 8: mean ± SE; for MTKE (cm) Week 8: muscle thickness knee extensors; for MTEF (cm) Δ / MTKE (cm) Δ: week 8 minus baseline
# Experimental: In addition to whole-body composition estimates, muscle thickness of the elbow flexors (MTEF) and knee extensors (MTKE) was evaluated via ultrasonography (Logiq e, General Electric. Boston, Mass. USA) at baseline and study completion. […] These distances were measured while the participant was standing, and measurement distances at baseline were recorded and used at the final assessment. All assessments took place on the right side of the body. In the supine position, the participant's arm was abducted to ˜80° with the arm supported for elbow flexor measurements. For knee extensor measurements, a foam pad was placed beneath the knee to allow an ˜10° bend at the knee joint. For all assessments, transmission gel was generously applied to the marked measurement location, and minimal pressure was applied by the transducer in order to avoid tissue compression. Three single transverse images were taken at each location, with values averaged for analysis. The gain and depth of the transducer were kept consistent for all measurements at a given site. Ultrasound images were blinded for analysis and analyzed by a single blinded researcher using ImageJ (v. 1.52a; National Institutes of Health, USA). The reliability of the researcher analyzing ultrasound images was determined through blinded analysis of 28 randomly selected ultrasound images on two occasions. This exercise produced minimum differences (MD) of 0.07 cm for MTEF and 0.14 cm for MTKE.
# [2] = Isokinetic squat peak force on mechanized squat device; details: for PFCON ES (d) / PFECC ES (d): Cohen's d baseline vs week 8; for PFCON Δ (%) / PFECC Δ (%): change baseline to week 8 relative to baseline; for PFCON (N) Week 4 / PFCON (N) Week 8: concentric peak force; for PFCON (N) Week 4 / PFCON (N) Week 8 / PFECC (N) Week 4 / PFECC (N) Week 8: mean ± SE; for PFECC (N) Week 4 / PFECC (N) Week 8: eccentric peak force; for PFCON (N) Δ / PFECC (N) Δ: week 8 minus baseline
# Description: Assessments of muscular performance took place between 12:00 and 18:00 in the non-fasted state, and participants were instructed to follow their preferred food and fluid intake patterns prior to testing. The assessment began with a 5-minute warm up period using a self-selected pace on a stationary bicycle. This warm up period was followed by assessment of countermovement vertical jumps (CMVJ) performance, testing on a mechanized squat device, and muscular strength and endurance assessment on the bench press and hip sled exercises. At the 4-week assessment, the CMVJ and hip sled assessments were not performed.
# Isometric and isokinetic squats were performed using a mechanized squat device (Exerbotics eSq, Tulsa, Okla., USA) (31, 32). At the first assessment, each participant's preferred foot positioning was determined using a custom grid overlaid on the foot platform of the squat device. This foot positioning was recorded and utilized for all visits. No weight belts, knee wraps, or other aids were utilized during testing. Prior to testing, the participant's range of motion for isokinetic testing was determined. The range of motion was set to 90° between the thigh and lower leg at the bottom of the repetition and approximately 170° at the top of the repetition, as determined by a goniometer. The isometric testing included maximal effort pushes at 120° and 150° knee angles. Each participant was instructed to push against the device as hard and fast as possible while attempting to complete a squat movement. Two isometric pushes were performed at each knee angle, and each effort lasted approximately 2 to 3 seconds. After the isometric testing, a 3-repetition maximum isokinetic force production test was completed. Prior to testing, participants observed the movement of the machine and received verbal instruction regarding proper performance of the assessment. Each of the repetitions during the maximal isokinetic force production test consisted of a 4-second eccentric phase, followed by an approximately half-second pause at the 90° knee position and a 4-second concentric phase. During testing, the force signal was sampled from the load cell at 1 kHz (MP100; Biopac Systems, Inc, Santa Barbara, Calif., USA), stored on a personal computer, and processed off-line using custom-written software (LabVIEW, Version 11.0; National Instruments, Austin, Tex., USA). The scaled force signal was low-pass filtered, with a 10-Hz cutoff (zero-phase lag, fourth-order Butterworth filter). All subsequent analyses were conducted on the scaled and filtered force signal. For the isometric force production tests, the rate of force development (RFD) over specific time intervals (i.e. 30, 50, 100 and 200 ms) was calculated by manually specifying the onset of force production within the custom LabVIEW program. For each repetition of the maximum isokinetic force production test, isokinetic peak forces (PF) were determined as the highest mean 25-ms epoch for both concentric and eccentric testing (i.e. PFCONC and PFECC).
# [3] = Countermovement vertical jump (jump height); details: for Jump Height ES (d): Cohen's d baseline vs week 8; for Jump Height Δ (%): change baseline to week 8 relative to baseline; for Jump Height Δ: week 8 minus baseline
# Description: For the CMVJ tests, participants completed eight trials while wearing their own footwear. Approximately 30 seconds rest separated each trial. Ground reaction force (GRF) data were obtained during the CMVJ using two force platforms sampled at 1 kHz (OPT464508; Advanced Mechanical Technology, Inc., Watertown, Mass. USA). Participants stood motionless with each foot positioned on a force platform and their hands on their hips before initiating the CMVJ with a countermovement action using a self-selected depth and jumping with maximum effort to achieve the highest vertical displacement possible. No instructions were provided for the landing phase except to land with each foot contacting its respective force platform from take-off and to stop downward motion and return to a motionless standing position. The raw GRF data from the two force platforms were smoothed using a fourth order low pass Butterworth digital filter with a 30 Hz cutoff frequency. The smoothed GRF from the two force platforms was then summed along the vertical axis to obtain the vertical GRF acting at the body center of mass. The start of the CMVJ was defined as the time when bodyweight was reduced by 2.5% (29). Take-off was defined as the time when the summed vertical GRF decreased below a 20 N threshold (30). Jump time was then calculated as the time elapsed between the start of the CMVJ and take-off, expressed in units of seconds. Vertical jump height was calculated using the impulse-momentum relationship and expressed in units of meters.
# [4] = Reported side effects / adverse events
structure (smiles),measurement,setting,value
"CC(C)(O)CC(=O)O [TRFHMB, β-hydroxy-β-methylbutyrate]",MTEF ES (d),[1]; ITT analysis,0.68
same,MTKE ES (d),[1]; ITT analysis,0.33
same,MTEF Δ (%),[1]; ITT analysis,8%
same,MTKE Δ (%),[1]; ITT analysis,5%
same,MTEF (cm) Week 8,[1]; ITT analysis,2.96 ± 0.09 cm
same,MTKE (cm) Week 8,[1]; ITT analysis,4.33 ± 0.16 cm
same,MTEF (cm) Δ,[1]; ITT analysis,0.22 cm
same,MTKE (cm) Δ,[1]; ITT analysis,0.19 cm
same,MTEF ES (d),[1]; PP analysis,0.86
same,MTKE ES (d),[1]; PP analysis,0.31
same,MTEF Δ (%),[1]; PP analysis,9%
same,MTKE Δ (%),[1]; PP analysis,4%
same,MTEF (cm) Week 8,[1]; PP analysis,2.97 ± 0.10 cm
same,MTKE (cm) Week 8,[1]; PP analysis,4.44 ± 0.20 cm
same,MTEF (cm) Δ,[1]; PP analysis,0.24 cm
same,MTKE (cm) Δ,[1]; PP analysis,0.17 cm
same,"Average effect size for tests of lower body force generation (1RMLP, PFCON, PFECC, RFD)","[2]; Cohen's d, vs 0.3-0.4 in TRF or CD",0.6-0.7
same,PFCON ES (d),[2]; ITT analysis,0.83
same,PFECC ES (d),[2]; ITT analysis,0.60
same,PFCON Δ (%),[2]; ITT analysis,29%
same,PFECC Δ (%),[2]; ITT analysis,19%
same,PFCON (N) Week 4,[2]; ITT analysis,1195 ± 92 N
same,PFCON (N) Week 8,[2]; ITT analysis,1324 ± 112 N
same,PFECC (N) Week 4,[2]; ITT analysis,1301 ± 93 N
same,PFECC (N) Week 8,[2]; ITT analysis,1407 ± 95 N
same,PFCON (N) Δ,[2]; ITT analysis,295 N
same,PFECC (N) Δ,[2]; ITT analysis,223 N
same,PFCON ES (d),[2]; PP analysis,0.95
same,PFECC ES (d),[2]; PP analysis,0.48
same,PFCON Δ (%),[2]; PP analysis,31%
same,PFECC Δ (%),[2]; PP analysis,14%
same,PFCON (N) Week 4,[2]; PP analysis,1247 ± 133 N
same,PFCON (N) Week 8,[2]; PP analysis,1418 ± 154 N
same,PFECC (N) Week 4,[2]; PP analysis,1311 ± 136 N
same,PFECC (N) Week 8,[2]; PP analysis,1475 ± 133 N
same,PFCON (N) Δ,[2]; PP analysis,336 N
same,PFECC (N) Δ,[2]; PP analysis,184 N
same,Jump Height ES (d),[3]; ITT analysis,0.65
same,Jump Height Δ (%),[3]; ITT analysis,29%
same,Jump Height W 8,"[3]; ITT analysis, week 8, mean ± SE, method b87 expresses jump height in meters",0.27 ± 0.03
same,Jump Height Δ,[3]; ITT analysis,0.06
same,Jump Height ES (d),[3]; PP analysis,0.21
same,Jump Height Δ (%),[3]; PP analysis,9%
same,Jump Height Δ,[3]; PP analysis,0.02
same,Reported side effects at W4,"[4]; week 4, n=1 each",morning fatigue; also recorded: bloated stomach
same,Reported side effects at W8,"[4]; week 8, n=1",bloated stomach
